Read-outs that look alike come from different tables or passages of the source.
Legend:
[1] = system: A2058 cells; assay: Cell viability assay (CELL-TITER-GLO) in A2058 cells; format: cell-based; details: Homo sapiens, A2058 cells, 48 hour treatment, cell viability, read-out: IC50 (μM) A2058
Method: (§1) Cell viability assays were run using standard protocols known to those of skill in art. Cells were plated in 96 well plates at the density of 3,000-10,000 cells per well. Twenty four hours later, cells were treated with increasing concentration of test compounds (1 nM to 1 μM). After another 48 hour, cell survival was measured using CELL-TITER-GLO® reagent (Promega) following the protocol provided by the manufacture. The IC50 value was determined as the concentration of test compound that kills 50% of the cell population.
(§2) Cell viability data generated according to the protocol described in Example 97 was generated for representative compounds in A2058 and U937 cells.

[2] = system: U937 cells; assay: Cell viability assay (CELL-TITER-GLO) in U937 cells; format: cell-based; details: Homo sapiens, U937 cells, 48 hour treatment, cell viability, read-out: IC50 (μM) U937
Method: as §1, §2

Row | Compound | IC50 ([1]; A2058, 48 h) [µM] | IC50 ([2]; U-937, 48 h) [µM] | IC50 [1] [µM] | IC50 ([2]; U-937) [µM]
1 | CC(C)[C@H](O)C(=O)N[C@H]1Cc2ccc3c(c2)[C@]24C5=C(N=C(O5)[C@H](C(C)C)NC1=O)c1ncc(o1)-c1c[nH]c5cccc(c15)-c1cccc2c1NC4O3 (stereo partly drawn) [Cpd J, reference compound] | 0.039 | 0.026 |  | 
2 | COC(=O)c1nc2oc1[C@@]13c4ccccc4NC1Oc1ccc(cc13)CC(N)C(=O)N[C@H]2C(C)C (stereo partly drawn) [Example 3] | > 1 | > 1 |  | 
3 | COC(=O)c1nc2oc1[C@@]13c4ccccc4NC1Oc1ccc(cc13)CC(NC(=O)OCc1ccccc1)C(=O)N[C@H]2C(C)C (stereo partly drawn) [Example 4] |  |  | > 1 | > 1
4 | COC(=O)c1nc2oc1[C@@]13c4ccccc4NC1Oc1ccc(cc13)C[C@H](NC(=O)[C@@H](O)C(C)C)C(=O)N[C@H]2C(C)C (stereo partly drawn) [Example 6] | > 1 | > 1 |  | 
5 | COC(=O)c1nc2oc1[C@@]13c4ccccc4NC1Oc1ccc(cc13)C[C@H](NC(=O)[C@@H](O)c1ccccc1)C(=O)N[C@H]2C(C)C (stereo partly drawn) [Example 7] | > 1 | > 1 |  | 
6 | [H][C@]1(C(=O)N[C@H]2Cc3ccc4c(c3)C3(C5=C(C(=O)OC)N=C(O5)[C@H](C(C)C)NC2=O)c2ccccc2N[C@H]3O4)CCCO1 (stereo partly drawn) [Example 8] | > 1 | > 1 |  | 
7 | COC(=O)c1nc2oc1C13c4ccccc4N[C@H]1Oc1ccc(cc13)C[C@H](NC(=O)[C@@H](O)CC(C)C)C(=O)N[C@H]2C(C)C (stereo partly drawn) [Example 9] | > 1 | > 1 |  | 
8 | COC(=O)c1nc2oc1C13c4ccccc4N[C@H]1Oc1ccc(cc13)C[C@H](NC(=O)c1cc(OC)c(OC)c(OC)c1)C(=O)N[C@H]2C(C)C (stereo partly drawn) [Example 10] | > 1 | > 1 |  | 
9 | CC(C)[C@H](O)C(=O)N[C@H]1Cc2ccc3c(c2)[C@]2(C4=C(C(=O)NCCc5c[nH]c6ccccc56)N=C(O4)[C@H](C(C)C)NC1=O)c1ccccc1NC2O3 (stereo partly drawn) [Example 11] | > 1 | > 1 |  | 
10 | CC(C)[C@H](O)C(=O)N[C@H]1Cc2ccc3c(c2)[C@]2(C4=C(C(=O)O)N=C(O4)[C@H](C(C)C)NC1=O)c1ccccc1NC2O3 (stereo partly drawn) [Example 12] |  |  | > 1 | > 1
11 | COC(=O)[C@@H]1CCCN1C(=O)c1nc2oc1C13c4ccccc4N[C@H]1Oc1ccc(cc13)C[C@H](NC(=O)[C@@H](O)C(C)C)C(=O)N[C@H]2C(C)C (stereo partly drawn) [Example 13] | > 1 | > 1 |  | 
12 | CC(C)[C@H](O)C(=O)N[C@H]1Cc2ccc3c(c2)C2(C4=C(C(=O)N5CCCC5)N=C(O4)[C@H](C(C)C)NC1=O)c1ccccc1N[C@H]2O3 (stereo partly drawn) [Example 14] | > 1 | > 1 |  | 
13 | CC(C)[C@H](O)C(=O)N[C@H]1Cc2ccc3c(c2)C2(C4=C(C(=O)NCc5ccccc5)N=C(O4)[C@H](C(C)C)NC1=O)c1ccccc1N[C@H]2O3 (stereo partly drawn) [Example 15] |  |  | > 1 | > 1
14 | CC(C)[C@H](O)C(=O)N[C@H]1Cc2ccc3c(c2)C2(C4=C(C(=O)NCC5CCCCC5)N=C(O4)[C@H](C(C)C)NC1=O)c1ccccc1N[C@H]2O3 (stereo partly drawn) [Example 16] | > 1 | > 1 |  | 
15 | CC(C)[C@H](O)C(=O)N[C@H]1Cc2ccc3c(c2)C2(C4=C(C(=O)N[C@@H]5CCCc6ccccc65)N=C(O4)[C@H](C(C)C)NC1=O)c1ccccc1N[C@H]2O3 (stereo partly drawn) [Example 17] | > 1 | > 1 |  | 
16 | CC(C)[C@H](O)C(=O)N[C@H]1Cc2ccc3c(c2)C2(C4=C(C(=O)NCC(c5ccccc5)c5ccccc5)N=C(O4)[C@H](C(C)C)NC1=O)c1ccccc1N[C@H]2O3 (stereo partly drawn) [Example 18] | > 1 | > 1 |  | 
17 | CC(C)[C@H](O)C(=O)N[C@H]1Cc2ccc3c(c2)C2(C4=C(C(=O)NC(c5ccccc5)c5ccccc5)N=C(O4)[C@H](C(C)C)NC1=O)c1ccccc1N[C@H]2O3 (stereo partly drawn) [Example 19] |  |  | > 1 | > 1
18 | CC(C)[C@H](O)C(=O)N[C@H]1Cc2ccc3c(c2)C2(C4=C(C(=O)NCc5ccc(F)cc5)N=C(O4)[C@H](C(C)C)NC1=O)c1ccccc1N[C@H]2O3 (stereo partly drawn) [Example 20] | > 1 | > 1 |  | 
